Experimental data taken from PubChem BioAssay (NCI).
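GI50 is the concentration that inhibits growth by half. TGI denotes the concentration required for complete inhibition of growth.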

Assays:
Test in all cases: NCI tumour cell line growth inhibition, 384-well format
[1] = tested on: PC-3 prostate
[2] = tested on: MALME-3M melanoma
[3] = tested on: MCF7 breast
[4] = tested on: CAKI-1 renal
[5] = tested on: KM12 colon
[6] = tested on: NCI-H522 lung
[7] = tested on: SN12C renal
[8] = tested on: K-562 leukemia
[9] = tested on: SF-295 CNS
[10] = tested on: HT29 colon
[11] = tested on: SF-268 CNS
[12] = tested on: T-47D breast
[13] = tested on: SK-OV-3 ovarian
[14] = tested on: MOLT-4 leukemia
[15] = tested on: BT-549 breast
[16] = tested on: M14 melanoma
[17] = tested on: UO-31 renal
[18] = tested on: 786-0 renal
[19] = tested on: SF-539 CNS
[20] = tested on: HOP-62 NSCLC
[21] = tested on: U251 glioblastoma
[22] = tested on: HCT-15 colon
[23] = tested on: HL-60(TB) leukemia
[24] = tested on: A549 NSCLC
[25] = tested on: OVCAR-5 ovarian
[26] = tested on: NCI/ADR-RES ovarian
[27] = tested on: CCRF-CEM leukemia
[28] = tested on: SK-MEL-2 melanoma
[29] = tested on: SNB-19 CNS
[30] = tested on: HOP-92 NSCLC
[31] = tested on: OVCAR-8 ovarian
[32] = tested on: HCT-116 colon
[33] = tested on: SNB-75 CNS
[34] = tested on: DU-145 prostate
[35] = tested on: ACHN renal
[36] = tested on: OVCAR-3 ovarian
[37] = tested on: NCI-H226 lung
[38] = tested on: IGROV1 ovarian
[39] = tested on: RPMI-8226 leukemia
[40] = tested on: UACC-62 melanoma
[41] = tested on: NCI-H23 lung
[42] = tested on: RXF 393 renal
[43] = tested on: OVCAR-4 ovarian
[44] = tested on: SW-620 colon
[45] = tested on: SK-MEL-28 melanoma
[46] = tested on: LOX IMVI melanoma
[47] = tested on: MDA-MB-468 breast

`N[C@@H](Cc1ccc(N(CCCl)CCCl)cc1)C(=O)O` was tested, and the GI50 [1] was 80.2 µM, the GI50 [2] was 14 µM and the TGI [2] was 30.7 µM. For the same molecule, the GI50 [3] was 9.86 µM, the GI50 [4] was 13.2 µM and the GI50 [5] was 70.3 µM. It also gave a GI50 [6] of 14.4 µM, a TGI [6] of 28.1 µM and a GI50 [7] of 8.12 µM. For the same molecule, the GI50 [8] was 27.8 µM, the GI50 [9] was 19.2 µM and the TGI [9] was 43.1 µM. It also gave a GI50 [10] of 47 µM, a GI50 [11] of 7.04 µM and a TGI [11] of 44.9 µM. For the same molecule, the GI50 [12] was 41 µM, the GI50 [13] was 20.5 µM and the TGI [13] was 96.2 µM. For the same molecule, the GI50 [14] was 1.01 µM, the TGI [14] was 2.2 µM and the GI50 [15] was 16.9 µM. The TGI [15] was 82.1 µM, the GI50 [16] was 20.8 µM and the GI50 [17] was 52 µM. The GI50 [18] was 28.9 µM, the GI50 [19] was 15.4 µM and the TGI [19] was 58.5 µM. For the same molecule, the GI50 [20] was 11.7 µM, the TGI [20] was 40.1 µM and the GI50 [21] was 16.1 µM. For the same molecule, the GI50 [22] was 11.1 µM, the GI50 [23] was 1.34 µM and the TGI [23] was 2.78 µM. For the same molecule, the GI50 [24] was 26.9 µM, the GI50 [25] was 34.2 µM and the GI50 [26] was 55.3 µM. For the same molecule, the GI50 [27] was 2.38 µM, the TGI [27] was 4.41 µM and the GI50 [28] was 63.1 µM. It also gave a GI50 [29] of 48.1 µM, a GI50 [30] of 28.2 µM and a GI50 [31] of 11.8 µM. For the same molecule, the GI50 [32] was 23.8 µM, the GI50 [33] was 20.9 µM and the GI50 [34] was 28.5 µM. It also gave a TGI [34] of 90 µM, a GI50 [35] of 19 µM and a TGI [35] of 43.7 µM. For the same molecule, the GI50 [36] was 26 µM, the GI50 [37] was 87.8 µM and the GI50 [38] was 85.1 µM. The GI50 [39] was 7.95 µM, the TGI [39] was 22.6 µM and the GI50 [40] was 15.2 µM. For the same molecule, the GI50 [41] was 17.8 µM, the TGI [41] was 60.5 µM and the GI50 [42] was 17.3 µM. The TGI [42] was 33.3 µM, the GI50 [43] was 40.7 µM and the GI50 [44] was 26.8 µM. The GI50 [45] was 89.7 µM, the GI50 [46] was 23.1 µM and the GI50 [47] was 4.53 µM. The TGI [47] was 18.7 µM.
